These results are taken from patent US20220409617A1, “Drug Formulations and Methods of Treatment for Metabolic Disorders” (The Regents of the University of California, priority 2019, published 2022).

Assay [1] deals with 3T3-L1 adipocytes. Briefly: Insulin-stimulated 2-deoxyglucose uptake. The settings on record: 3 h, 893 10 μM, MK-2206 2 μM. It is filed as cell-based, mouse. The procedure:
(§1) 3T3-L1 cells were maintained in DMEM with 10% FBS and 1% penicillin-streptomycin until induced to differentiate. 3T3-L1 pre-adipocytes were differentiated as described in (M. P. Valley, et al., Anal. Biochem. 505: 43-50, 2016, the disclosure of which is incorporated herein by reference) with slight modifications. Briefly, pre-adipocytes were grown to confluence. After 2 d, cells were induced with maintenance media containing 500 μM IBMX (15879, Sigma-Aldrich, St. Louis, Mo.), 1 μM dexamethasone (D4902, Sigma-Aldrich), 5 μg/mL bovine insulin (10516, Sigma-Aldrich), and 5 μM troglitazone (50-115-0786, ApexBio). Media was changed every 2-3 d for 7 d. On day 7 post-induction, media was changed to maintenance media+5 μg/mL bovine insulin. On day 9 post-induction, media was changed to maintenance media. Mature adipocytes were used 12-14 d post-induction for all experiments. LSL-KrasG12D mouse embryonic fibroblasts (MEFs) with and without Cre-mediated deletion of the STOP cassette were obtained from David Tuveson (Cold Spring Harbor Laboratory, Cold Spring Harbor N.Y., USA) in 2000. p53^flox/flox MEFs were derived in house (2015) from C57BL/6 mice using standard techniques and immortalized by transient expression of Cre recombinase and deletion of p53. MEFs were cultured and maintained in DMEM with 10% FBS and 1% penicillin-streptomycin. […]

Assay [2] deals with AKT. Briefly: Insulin-stimulated AKT activation, western blot. The settings on record: 3T3-L1 adipocytes; 3 h pre-treatment, C2-ceramide 50 or 100 μM, 893 5 or 10 μM; insulin 100 nM 15 min. It is filed as cell-based, mouse. How it is done:
as §1, with “experiments.” for “experiments. LSL-KrasG12D mouse embryonic fibroblasts (MEFs) with and without Cre-mediated deletion of the STOP cassette were obtained from David Tuveson (Cold Spring Harbor Laboratory, Cold Spring Harbor N.Y., USA) in 2000. p53^flox/flox MEFs were derived in house (2015) from C57BL/6 mice using standard techniques and immortalized by transient expression of Cre recombinase and deletion of p53. MEFs were cultured and maintained in DMEM with 10% FBS and 1% penicillin-streptomycin.”
Mature adipocytes were serum starved for 16 h then treated with vehicle, ceramide (50 or 100 μM), or sphingolipid-like compound 893 (5 or 10 μM) in serum-free media supplemented with 0.2% fatty-acid free BSA for 3 h after which 100 nM insulin was added for 15 min. […] Protein content was quantified in the supernatant using the Pierce™ BCA Protein Assay Kit (Thermo-Fisher Scientific, Waltham, Mass.). […]
On the technique in general: In western blotting, separated proteins are transferred to a membrane and probed.

Regarding `CCCCCCCCc1ccc([C@H]2CCN[C@@H]2CO)cc1.Cl` [compound 893], the Insulin-stimulated glucose uptake entry in assay [1] is recorded as “but not sphingolipid-like compound 893, impeded insulin-stimulated glucose uptake in adipocytes”. Further, the “Insulin-stimulated AKT activation” value in assay [2] is “but not sphingolipid-like compound 893, interfered with insulin-stimulated AKT activation”.
